Marks after values point to notes of the source that are not given here.
Key:
[1] = tested on: STZ-induced diabetic rats; assay: Oral mixed-carbohydrate tolerance test (OMCTT) in STZ-induced diabetic rats (Example 9); assay type: in vivo, rat; settings: for Plasma glucose 0 hr: before dosing; for Plasma glucose 0 hr / Plasma glucose 0.5 hr / Plasma glucose 1 hr / Plasma glucose 2 hr / Plasma glucose 3 hr / ΔAUC (0-1) / ΔAUC (0-1) (% of Control): mixed-carbohydrate load, mean ± S.E.M.; for PG elevation after glucose administration: 0.03 and 0.1 mg/kg oral, OMCTT
Method: (§1) Study in diabetic rats with mixed carbohydrates. Diabetic rats, induced by intravenous injection of streptozotocin (STZ; 40 mg/kg), were used to determining plasma glucose concentration (PG) 1 hr after oral mixed-carbohydrate tolerance test (OMCTT). […] Blood was collected via the caudal artery immediately before dosing and 0.5, 1, 2, and 3 hr after dosing. The glucose concentration measurement in plasma used Glucose CII-Test Wako kit (Wako Pure Chemicals Industries, Ltd., Osaka, Japan). The variables used for efficacy assessment were the measurement values of the plasma glucose concentration and the area under the curve for plasma glucose concentration through 1 hr after loading (ΔAUC0-1 hr). The ΔAUC0-1 hr for plasma glucose was calculated based on the trapezoid method using the change of plasma glucose concentrations from pre-value (0 hr).

[2] = tested on: STZ-induced diabetic rats; assay: OGTT in STZ-induced diabetic rats (Example 8); assay type: in vivo, rat; settings: for Plasma glucose 0 hr: before dosing; for Plasma glucose 0 hr / Plasma glucose 0.5 hr / Plasma glucose 1 hr / Plasma glucose 2 hr / Plasma glucose 3 hr / ΔAUC (0-1) / ΔAUC (0-1) (% of Control): glucose 2 g/kg, mean ± S.E.M.; for PG elevation after glucose administration: 0.03 and 0.1 mg/kg oral, OGTT 2 g/kg
Method: as §1, with “glucose.” for “mixed carbohydrates.”, “glucose” for “mixed-carbohydrate”, “(OGTT).” for “(OMCTT).”

[3] = tested on: healthy adult male volunteers; assay: Repeat dose study in humans, pharmacodynamic parameters after meals; assay type: in vivo, human; settings: repeat dosing
Method: Repeat dose study in humans. Oral doses of 2 mg, 5 mg, 10 mg, 20 mg, of mizagliflozin, placebo or miglitol 50 mg per dose three times daily to healthy adult male volunteers by a randomized, placebo-controlled, parallel-group, double-blind comparison method. The dose was orally administered with approximately 150 mL of water once daily immediately before breakfast on Days 1 and 13, and three times daily immediately before every meal on Days 3 to 12.
Changes in the following parameters and ΔAUC from 0 to t* hours after breakfast, lunch, and evening meal were measured: Blood glucose level, Serum insulin concentration, Blood active GLP-1 concentration, and Blood total GIP concentration, where t=0.5, 1, 1.5, 2, and 3 (t=0.5, 1, 1.5, 2, 3, and 5 only after breakfast).
In the miglitol group, hyperglycemia was suppressed after breakfast, lunch, and evening meal, as compared to the placebo group. […] These pharmacodynamic effects more or less persisted during 10-day repeated administration. There was no correlation between plasma mizagliflozin concentration and the pharmacodynamic effects. Measurements in Tables 5-8 were performed on Day 3 after breakfast.

[4] = 50 mg per dose, Day 3 after breakfast

Row | SMILES | Plasma glucose 0 hr ([1]; 0.03 mg/kg oral) [mg/dL] | Plasma glucose 0.5 hr ([1]; 0.03 mg/kg oral) | Plasma glucose 1 hr ([1]; 0.03 mg/kg oral) [mg/dL] | Plasma glucose 2 hr ([1]; 0.03 mg/kg oral) [mg/dL] | Plasma glucose 3 hr ([1]; 0.03 mg/kg oral) [mg/dL] | ΔAUC (0-1) ([1]; 0.03 mg/kg oral) | ΔAUC (0-1) (% of Control) ([1]; 0.03 mg/kg oral) | Plasma glucose 0 hr ([1]; 0.1 mg/kg oral) | Plasma glucose 0.5 hr ([1]; 0.1 mg/kg oral) | Plasma glucose 1 hr ([1]; 0.1 mg/kg oral) [mg/dL] | Plasma glucose 2 hr ([1]; 0.1 mg/kg oral) [mg/dL] | Plasma glucose 3 hr ([1]; 0.1 mg/kg oral) | ΔAUC (0-1) ([1]; 0.1 mg/kg oral) | ΔAUC (0-1) (% of Control) ([1]; 0.1 mg/kg oral) | PG elevation after glucose administration [1] | Plasma glucose 0 hr ([2]; 0.03 mg/kg oral) [mg/dL] | Plasma glucose 0.5 hr ([2]; 0.03 mg/kg oral) [mg/dL] | Plasma glucose 1 hr ([2]; 0.03 mg/kg oral) [mg/dL] | Plasma glucose 2 hr ([2]; 0.03 mg/kg oral) [mg/dL] | PG elevation after glucose administration [2] | other results
1 | Cc1cc(OCCCNCCC(N)=O)ccc1Cc1c(O[C@@H]2O[C@H](CO)[C@@H](O)[C@H](O)[C@H]2O)n[nH]c1C(C)C [KGA-2727] | 114 ± 7 | 317 ± 28 mg/dL | 250 ± 30 | 114 ± 5 | 104 ± 7 | 135 ± 20 mg·h/dL | 83 ± 12 % of Control | 124 ± 8 mg/dL | 240 ± 17^y mg/dL | 248 ± 29 | 133 ± 4 | 106 ± 9 mg/dL | 89 ± 12 mg·h/dL | 55 ± 7 % of Control | inhibited PG elevation after glucose administration dose dependently | 120 ± 9 | 354 ± 34 | 342 ± 42 | 155 ± 24 | inhibited PG elevation after glucose administration dose dependently | Plasma glucose 3 hr ([2]; 0.03 mg/kg oral): 85 ± 6 mg/dL; ΔAUC (0-1) ([2]; 0.03 mg/kg oral): 172 ± 21 mg·h/dL; ΔAUC (0-1) (% of Control) ([2]; 0.03 mg/kg oral): 89 ± 11 % of Control; Plasma glucose 0 hr ([2]; 0.1 mg/kg oral): 116 ± 6 ^ mg/dL; Plasma glucose 0.5 hr ([2]; 0.1 mg/kg oral): 233 ± 15^y mg/dL; Plasma glucose 1 hr ([2]; 0.1 mg/kg oral): 262 ± 19^ mg/dL; Plasma glucose 2 hr ([2]; 0.1 mg/kg oral): 194 ± 12^x mg/dL; Plasma glucose 3 hr ([2]; 0.1 mg/kg oral): 102 ± 16^ mg/dL; ΔAUC (0-1) ([2]; 0.1 mg/kg oral): 95 ± 14^y mg · dL^−1 · hr; ΔAUC (0-1) (% of Control) ([2]; 0.1 mg/kg oral): 49 ± 7^y % of Control
2 | Cc1cc(OCCCN)ccc1Cc1c(O[C@@H]2O[C@H](CO)[C@@H](O)[C@H](O)[C@H]2O)n[nH]c1C(C)C [KGA-2586] | 118 ± 8 | 269 ± 5^y mg/dL | 235 ± 8 | 112 ± 11 | 108 ± 10 | 105 ± 4^x mg · dL^−1 · hr | 64 ± 2^x % of Control | 126 ± 7^ mg/dL | 213 ± 11^z mg/dL | 215 ± 13 | 144 ± 12 | 108 ± 8^ mg/dL | 65 ± 6^z mg · dL^−1 · hr | 40 ± 4^z % of Control | inhibited PG elevation after glucose administration dose dependently | 128 ± 4 | 351 ± 22 | 350 ± 32 | 154 ± 20 | inhibited PG elevation after glucose administration dose dependently | Plasma glucose 3 hr ([2]; 0.03 mg/kg oral): 86 ± 4 mg/dL; ΔAUC (0-1) ([2]; 0.03 mg/kg oral): 167 ± 20 mg·h/dL; ΔAUC (0-1) (% of Control) ([2]; 0.03 mg/kg oral): 86 ± 10 % of Control; Plasma glucose 0 hr ([2]; 0.1 mg/kg oral): 121 ± 8 ^ mg/dL; Plasma glucose 0.5 hr ([2]; 0.1 mg/kg oral): 236 ± 18^z mg/dL; Plasma glucose 1 hr ([2]; 0.1 mg/kg oral): 257 ± 24^x mg/dL; Plasma glucose 2 hr ([2]; 0.1 mg/kg oral): 193 ± 21^x mg/dL; Plasma glucose 3 hr ([2]; 0.1 mg/kg oral): 105 ± 12^ mg/dL; ΔAUC (0-1) ([2]; 0.1 mg/kg oral): 91 ± 11^y mg · dL^−1 · hr; ΔAUC (0-1) (% of Control) ([2]; 0.1 mg/kg oral): 47 ± 6^y % of Control
3 | CC(C)c1[nH]nc(O[C@@H]2O[C@H](CO)[C@@H](O)[C@H](O)[C@H]2O)c1Cc1ccc(CCCC(=O)NC(C)(C)C(=O)N2CCNCC2)cc1 [KGA-2891] |  |  |  |  |  |  |  |  |  |  |  |  |  |  | inhibited PG elevation after glucose administration dose dependently |  |  |  |  | inhibited PG elevation after glucose administration dose dependently | 
4 | Cc1cc(OCCCNCC(N)=O)ccc1Cc1c(O[C@@H]2O[C@H](CO)[C@@H](O)[C@H](O)[C@H]2O)n[nH]c1C(C)C [KGA-2588] | 120 ± 3 | 291 ± 22 mg/dL | 248 ± 17 | 109 ± 7 | 100 ± 6 | 117 ± 14 mg·h/dL | 72 ± 9 % of Control | 123 ± 8 mg/dL | 258 ± 25^x mg/dL | 224 ± 23 | 132 ± 4 | 114 ± 6 mg/dL | 93 ± 13 mg·h/dL | 57 ± 8 % of Control | inhibited PG elevation after glucose administration dose dependently | 137 ± 6 | 351 ± 29 | 363 ± 48 | 185 ± 25 | inhibited PG elevation after glucose administration dose dependently | Plasma glucose 3 hr ([2]; 0.03 mg/kg oral): 101 ± 4 mg/dL; ΔAUC (0-1) ([2]; 0.03 mg/kg oral): 163 ± 23 mg·h/dL; ΔAUC (0-1) (% of Control) ([2]; 0.03 mg/kg oral): 84 ± 12 % of Control; Plasma glucose 0 hr ([2]; 0.1 mg/kg oral): 128 ± 8 ^ mg/dL; Plasma glucose 0.5 hr ([2]; 0.1 mg/kg oral): 249 ± 32^y mg/dL; Plasma glucose 1 hr ([2]; 0.1 mg/kg oral): 286 ± 51^ mg/dL; Plasma glucose 2 hr ([2]; 0.1 mg/kg oral): 221 ± 33^x mg/dL; Plasma glucose 3 hr ([2]; 0.1 mg/kg oral): 145 ± 5^z mg/dL; ΔAUC (0-1) ([2]; 0.1 mg/kg oral): 100 ± 23^x mg · dL^−1 · hr; ΔAUC (0-1) (% of Control) ([2]; 0.1 mg/kg oral): 51 ± 12^x % of Control
5 | OCCN1C[C@H](O)[C@@H](O)[C@H](O)[C@H]1CO [Miglitol, miglitol, reference compound] |  |  |  |  |  |  |  |  |  |  |  |  |  |  |  |  |  |  |  |  | AUC 0-5 GIP [3, 4]: 897.03 pg·h/mL; AUC 0-5 GLP-1 (active) [3, 4]: 20.5 pmol·h/L; AUC 0-5 Insulin [3, 4]: 138.33 uU*h/ml; AUC 0-5 glucose [3, 4]: 543.7 mg·h/dL; GIP (peak) [3, 4]: 235 pg/mL; GLP-1 (active) (peak) [3, 4]: 6.21 pmol/L; Glucose (peak) [3, 4]: 121.6 mg/dL; Insulin (peak) [3, 4]: 40.4 uU/ml; Time (h) to peak, GIP [3, 4]: 3 h; Time (h) to peak, GLP-1 (active) [3, 4]: 0.5 h; Time (h) to peak, glucose [3, 4]: 1.5 h; Time (h) to peak, insulin [3, 4]: 2 h; active GLP-1 concentration ([3]; healthy adult male volunteers): a tendency toward increase; hyperglycemia after breakfast, lunch, and evening meal ([3]; healthy adult male volunteers): suppressed; insulin secretion ([3]; healthy adult male volunteers): inhibition of insulin secretion; total GIP concentration ([3]; healthy adult male volunteers): inhibition of increase in total GIP concentration; total GLP-1 concentration ([3]; healthy adult male volunteers): an increase in total GLP-1 concentration

Reference: patent publication US11596644B2, “Method for treating post-prandial hypoglycemia” (AVOLYNT, priority 2018, dated 2023)
